From patent US20240208992A1, “MACROCYCLES AS CFTR MODULATORS” (Idorsia Pharmaceuticals Ltd, priority 2021, published 2024)
pEC50: −log10 of the molar value.

Target: human F508del-CFTR (Homo sapiens, UniProt P13569, DEL508-508)
Experiment: F508del-CFTR cell surface expression (corrector activity), DiscoveRx ß-galactosidase complementation chemiluminescence assay in recombinant U2OS cell line;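 further: U2OS cells co-expressing ProLink-tagged F508del-CFTR and a membrane-anchored enzyme acceptor, where more surface CFTR restores β-galactosidase activity measured by chemiluminescence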
Conditions: for pEC50: EC50, F508del-CFTR cell surface expression, U2OS cells, 16h compound incubation, geomean values; for Emax: U2OS, in relation to Emax of corrector lumacaftor (=100%), arithmetic mean values

Sequence of human F508del-CFTR (P13569 with tags, fused parts or gaps DEL508-508): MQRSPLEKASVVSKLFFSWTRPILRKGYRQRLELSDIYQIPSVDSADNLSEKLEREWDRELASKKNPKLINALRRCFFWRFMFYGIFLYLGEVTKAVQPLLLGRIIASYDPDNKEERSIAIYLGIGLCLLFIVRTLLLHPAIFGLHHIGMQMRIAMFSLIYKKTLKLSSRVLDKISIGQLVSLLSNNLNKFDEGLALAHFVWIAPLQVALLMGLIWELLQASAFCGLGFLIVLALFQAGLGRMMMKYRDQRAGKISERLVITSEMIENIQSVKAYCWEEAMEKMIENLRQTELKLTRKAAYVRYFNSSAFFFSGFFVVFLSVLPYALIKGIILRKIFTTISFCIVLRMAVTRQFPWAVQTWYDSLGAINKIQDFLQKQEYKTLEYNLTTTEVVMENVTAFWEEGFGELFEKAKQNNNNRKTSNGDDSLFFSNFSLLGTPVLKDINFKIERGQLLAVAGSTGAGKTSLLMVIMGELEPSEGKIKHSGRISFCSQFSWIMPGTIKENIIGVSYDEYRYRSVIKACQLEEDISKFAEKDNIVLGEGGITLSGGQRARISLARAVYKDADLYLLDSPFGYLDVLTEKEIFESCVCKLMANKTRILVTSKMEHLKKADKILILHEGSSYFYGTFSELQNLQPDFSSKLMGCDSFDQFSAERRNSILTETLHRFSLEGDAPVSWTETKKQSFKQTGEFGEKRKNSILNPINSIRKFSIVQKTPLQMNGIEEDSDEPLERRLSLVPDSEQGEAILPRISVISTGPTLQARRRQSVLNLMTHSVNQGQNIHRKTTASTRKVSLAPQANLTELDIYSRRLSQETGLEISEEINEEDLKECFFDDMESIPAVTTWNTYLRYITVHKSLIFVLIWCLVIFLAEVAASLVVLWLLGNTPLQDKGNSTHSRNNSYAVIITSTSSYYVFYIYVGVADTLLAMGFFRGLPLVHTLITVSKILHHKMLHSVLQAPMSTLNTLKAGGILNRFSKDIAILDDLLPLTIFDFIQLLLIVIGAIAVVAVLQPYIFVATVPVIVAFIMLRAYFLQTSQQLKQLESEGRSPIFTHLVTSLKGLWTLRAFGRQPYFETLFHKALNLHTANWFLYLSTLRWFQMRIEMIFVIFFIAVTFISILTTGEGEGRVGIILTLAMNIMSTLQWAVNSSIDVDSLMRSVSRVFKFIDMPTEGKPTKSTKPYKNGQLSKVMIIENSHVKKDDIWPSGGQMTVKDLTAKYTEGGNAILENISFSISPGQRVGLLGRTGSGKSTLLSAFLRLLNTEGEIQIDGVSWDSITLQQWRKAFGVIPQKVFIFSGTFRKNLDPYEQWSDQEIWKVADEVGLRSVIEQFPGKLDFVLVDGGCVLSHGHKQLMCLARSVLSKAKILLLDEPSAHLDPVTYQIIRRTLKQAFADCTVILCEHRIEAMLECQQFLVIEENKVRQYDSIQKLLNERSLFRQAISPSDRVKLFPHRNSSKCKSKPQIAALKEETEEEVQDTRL

Row | Compound | pEC50 | Emax
1 | CC(C)C[C@H]1C(=O)N2CCCC[C@@H]2C(=O)N[C@H](Cc2ccccc2)COc2cnc3ccc(F)cc3c2C(=O)N[C@H](C(=O)NCCc2cc(C3CC3)on2)CC(=O)N1C [Example 639, (9S,13S,19aR,22R)-22-benzyl-N-(2-(5-cyclopropylisoxazol-3-yl)ethyl)-5-fluoro-13-isobutyl-12-methyl-7,11,14,20-tetraoxo-7,8,9,10,11,12,13,14,17,18,19,19a,20,21,22,23-hexadecahydro-16H-pyrido[2′,1′:6,7][1]oxa[4,7,10,14]tetraazacycloheptadecino[17,16-c]quinoline-9-carboxamide] | 6.76 | 305%
2 | CC(C)C[C@H]1C(=O)N2CCCC[C@@H]2C(=O)N[C@H](Cc2ccccc2)COc2cnc3ccc(F)cc3c2C(=O)N[C@H](C(=O)NCCc2cc(C3CC3)no2)CC(=O)N1C [Example 640, (9S,13S,19aR,22R)-22-benzyl-N-(2-(3-cyclopropylisoxazol-5-yl)ethyl)-5-fluoro-13-isobutyl-12-methyl-7,11,14,20-tetraoxo-7,8,9,10,11,12,13,14,17,18,19,19a,20,21,22,23-hexadecahydro-16H-pyrido[2′,11:6,7][1]oxa[4,7,10,14]tetraazacycloheptadecino[17,16-c]quinoline-9-carboxamide] | 6.88 | 339%
3 | CC(C)C[C@H]1C(=O)N2CCCC[C@@H]2C(=O)N[C@H](Cc2ccccc2)COc2cnc3ccc(F)cc3c2C(=O)N[C@H](C(=O)NCCc2nc(C3CC3)no2)CC(=O)N1C [Example 641, (9S,13S,19aR,22R)-22-benzyl-N-(2-(3-cyclopropyl-1,2,4-oxadiazol-5-yl)ethyl)-5-fluoro-13-isobutyl-12-methyl-7,11,14,20-tetraoxo-7,8,9,10,11,12,13,14,17,18,19,19a,20,21,22,23-hexadecahydro-16H-pyrido[2′,1′:6,7][1]oxa[4,7,10,14]tetraazacycloheptadecino[17,16-c]quinoline-9-carboxamide] | 7.06 | 305%
4 | CC(C)C[C@H]1C(=O)N2CCCC[C@@H]2C(=O)N[C@H](Cc2ccccc2)COc2cnc3ccccc3c2C(=O)N[C@H](C(=O)NCCc2cc(C3CC3)no2)CC(=O)N1C [Example 642, (9S,13S,19aR,22R)-22-benzyl-N-(2-(3-cyclopropylisoxazol-5-yl)ethyl)-13-isobutyl-12-methyl-7,11,14,20-tetraoxo-7,8,9,10,11,12,13,14,17,18,19,19a,20,21,22,23-hexadecahydro-16H-pyrido[2′,1′:6,7][1]oxa[4,7,10,14]tetraazacycloheptadecino[17,16-c]quinoline-9-carboxamide] | 6.77 | 366%
5 | CC(C)C[C@H]1C(=O)N2CCOC[C@@H]2C(=O)N[C@H](Cc2ccccc2)COc2cnc3ccc(F)cc3c2C(=O)N[C@H](C(=O)NCCc2cc(C3CC3)on2)CC(=O)N1C [Example 643, (9S,13S,19aR,22R)-22-benzyl-N-(2-(5-cyclopropylisoxazol-3-yl)ethyl)-5-fluoro-13-isobutyl-12-methyl-7,11,14,20-tetraoxo-7,8,9,10,11,12,13,14,16,17,19,19a,20,21,22,23-hexadecahydro-[1,4]oxazino[3′,4′:6,7][1]oxa[4,7,10,14]tetraazacycloheptadecino[17,16-c]quinoline-9-carboxamide] | 6.66 | 270%
6 | CC(C)C[C@H]1C(=O)N2CCOC[C@@H]2C(=O)N[C@H](Cc2ccccc2)COc2cnc3ccc(F)cc3c2C(=O)N[C@H](C(=O)NCCc2cc(C3CC3)no2)CC(=O)N1C [Example 644, (9S,13S,19aR,22R)-22-benzyl-N-(2-(3-cyclopropylisoxazol-5-yl)ethyl)-5-fluoro-13-isobutyl-12-methyl-7,11,14,20-tetraoxo-7,8,9,10,11,12,13,14,16,17,19,19a,20,21,22,23-hexadecahydro-[1,4]oxazino[3′,4′:6,7][1]oxa[4,7,10,14]tetraazacycloheptadecino[17,16-c]quinoline-9-carboxamide] | 6.56 | 270%
7 | CC(C)C[C@H]1C(=O)N2CCOC[C@@H]2C(=O)N[C@H](Cc2ccccc2)COc2cnc3ccc(F)cc3c2C(=O)N[C@H](C(=O)NCCc2nc(C3CC3)no2)CC(=O)N1C [Example 645, (9S,13S,19aR,22R)-22-benzyl-N-(2-(3-cyclopropyl-1,2,4-oxadiazol-5-yl)ethyl)-5-fluoro-13-isobutyl-12-methyl-7,11,14,20-tetraoxo-7,8,9,10,11,12,13,14,16,17,19,19a,20,21,22,23-hexadecahydro-[1,4]oxazino[3′,4′:6,7][1]oxa[4,7,10,14]tetraazacycloheptadecino[17,16-c]quinoline-9-carboxamide] | 6.54 | 211%
8 | CCN1C(=O)C[C@@H](C(=O)NCCc2nc(C3CC3)no2)NC(=O)c2c(cnc3ccccc23)OC[C@@H](Cc2ccccc2)NC(=O)[C@H]2CCCCN2C(=O)[C@@H]1CC(C)C [Example 646, (9S,13S,19aR,22R)-22-benzyl-N-(2-(3-cyclopropyl-1,2,4-oxadiazol-5-yl)ethyl)-12-ethyl-13-isobutyl-7,11,14,20-tetraoxo-7,8,9,10,11,12,13,14,17,18,19,19a,20,21,22,23-hexadecahydro-16H-pyrido[2′,1′:6,7][1]oxa[4,7,10,14]tetraazacycloheptadecino[17,16-c]quinoline-9-carboxamide] | 6.80 | 201%
9 | COc1cccc(CCNC(=O)[C@@H]2CC(=O)N(C)[C@@H](CC(C)C)C(=O)N(C)CC(=O)N[C@H](Cc3ccccc3)COc3cnc(OC)cc3C(=O)N2)c1 [Example 647, (3R,9S,13S)-3-benzyl-9-isobutyl-17-methoxy-N-(3-methoxyphenethyl)-7,10-dimethyl-5,8,11,15-tetraoxo-2,3,4,5,6,7,8,9,10,11,12,13,14,15-tetradecahydropyrido[4,3-p][1]oxa[4,7,10,14]tetraazacycloheptadecine-13-carboxamide] | 6.09 | 182%
10 | COc1cc2c(cn1)OC[C@@H](Cc1ccccc1)NC(=O)C1(CC1)N(C)C(=O)[C@H](CC(C)C)N(C)C(=O)C[C@@H](C(=O)NCCc1cc(C3CC3)no1)NC2=O [Example 648, (3′R,9′S,13′S)-3′-benzyl-N-(2-(3-cyclopropylisoxazol-5-yl)ethyl)-9′-isobutyl-17′-methoxy-7′,10′-dimethyl-5′,8′,11′,15′-tetraoxo-2′,3′,4′,5′,8′,9′,10′,11′,12′,13′,14′,15′-dodecahydro-7′H-spiro[cyclopropane-1,6′-pyrido[4,3-p][1]oxa[4,7,10,14]tetraazacycloheptadecine]-13′-carboxamide] | 6.13 | 159%
11 | COc1cc2c(cn1)OC[C@@H](Cc1ccccc1)NC(=O)C1(CC1)N(C)C(=O)[C@H](CC(C)C)N(C)C(=O)C[C@@H](C(=O)NCCc1noc(C3CC3)n1)NC2=O [Example 649, (3′R,9′S,13′S)-3′-benzyl-N-(2-(5-cyclopropyl-1,2,4-oxadiazol-3-yl)ethyl)-9′-isobutyl-17′-methoxy-7′,10′-dimethyl-5′,8′,11′,15′-tetraoxo-2′,3′,4′,5′,8′,9′,10′,11′,12′,13′,14′,15′-dodecahydro-7′H-spiro[cyclopropane-1,6′-pyrido[4,3-p][1]oxa[4,7,10,14]tetraazacycloheptadecine]-13′-carboxamide] | 6.04 | 149%
12 | COc1cccc(CCNC(=O)[C@@H]2CC(=O)N(C)[C@@H](CC(C)C)C(=O)N(C)C3(CC3)C(=O)N[C@H](Cc3ccccc3)COc3cnc(OC)cc3C(=O)N2)c1 [Example 650, (3′R,9′S,13′S)-3′-benzyl-9′-isobutyl-17′-methoxy-N-(3-methoxyphenethyl)-7′,10′-dimethyl-5′,8′,11′,15′-tetraoxo-2′,3′,4′,5′,8′,9′,10′,11′,12′,13′,14′,15′-dodecahydro-7′H-spiro[cyclopropane-1,6′-pyrido[4,3-p][1]oxa[4,7,10,14]tetraazacycloheptadecine]-13′-carboxamide] | 6.22 | 214%
13 | CC(C)C[C@H]1C(=O)N2CCCC[C@@H]2C(=O)N[C@H](Cc2ccccc2)COc2cccc(F)c2C(=O)N[C@H](C(=O)NCCc2ccc(-n3nccn3)cc2)CC(=O)N1C [Example 651, (7S,11S,20R,22aR)-N-(4-(2H-1,2,3-triazol-2-yl)phenethyl)-20-benzyl-14-fluoro-7-isobutyl-8-methyl-6,9,13,22-tetraoxo-1,3,4,6,7,8,9,10,11,12,13,19,20,21,22,22a-hexadecahydro-2H-benzo[p]pyrido[2,1-f][1]oxa[4,7,10,14]tetraazacycloheptadecine-11-carboxamide] | 6.43 | 127%
14 | [2H]C1([2H])Oc2ccc3c(c2O1)C(=O)N[C@H](C(=O)NCCc1ccc(-n2nccn2)cc1)CC(=O)N(C)[C@@H](CC(C)C)C(=O)N1CCCC[C@@H]1C(=O)N[C@H](Cc1ccccc1)CO3 [Example 653, (8S,12S,18aR,21R)-N-(4-(2H-1,2,3-triazol-2-yl)phenethyl)-21-benzyl-12-isobutyl-11-methyl-6,10,13,19-tetraoxo-6,7,8,9,10,11,12,13,16,17,18,18a,19,20,21,22-hexadecahydro-15H-[1,3]dioxolo[4′,5′:5,6]benzo[1,2-p]pyrido[2,1-f][1]oxa[4,7,10,14]tetraazacycloheptadecine-4,4-d2-8-carboxamide] | 6.48 | 140%
15 | Cc1cc(CCNC(=O)[C@@H]2CC(=O)N(C)[C@@H](CC(C)C)C(=O)N(C)C3(CC3)C(=O)N[C@H](Cc3ccccc3)COc3ccc4ccccc4c3C(=O)N2)on1 [Example 654, (3′S,7′S,13′R)-13′-benzyl-7′-isobutyl-6′,9′-dimethyl-N-(2-(3-methylisoxazol-5-yl)ethyl)-1′,5′,8′,11′-tetraoxo-2′,3′,4′,5′,6′,7′,8′,9′,11′,12′,13′,14′-dodecahydro-1′H-spiro[cyclopropane-1,10′-naphtho[1,2-p][1]oxa[4,7,10,14]tetraazacycloheptadecine]-3′-carboxamide] | 6.54 | 330%
